Laboratory results as given in US20220125886A1 (The Board of Trustees of the Leland Stanford Junior …, priority 2019, published 2022).
“Also recorded” adds a separate entry of the source.

Key:
[1] = reported previously, used for the fit; cited from earlier work
[2] = Diffusion-ordered NMR spectroscopy (DOSY) of protein/CB[7]-PEG complexes; type: physicochemical; conditions: for diffusion rate D: DOSY, protein 6 mg mL^−1, 200 mM phosphate buffer pH 7, D2O, zinc removed with EDTA; for hydrodynamic radius (Rh): approximated from D by the Stokes-Einstein relationship
Excerpt: A Varian Inova 600 MHz NMR instrument was used to acquire the data. Magnetic field strengths ranging from 2 to 57 G cm^−1. The DOSY time and gradient pulse were set at 132 ms (Δ) and 3 ms (δ) respectively. All NMR data were processed using MestReNova 11.0.4 software.

[3] = Circular dichroism of protein secondary structure when bound to CB[7]-PEG; type: physicochemical; conditions: PBS pH 7.4, with CB[7]-PEG, with or without EDTA
Description: After mixing, samples were left to equilibrate for 15 minutes at room temperature. […] circular dichroism spectroscopy was performed at 20° C. with a J-815 CD Spectropolarimeter (Jasco Corporation) over a wavelength range of 185-250 nm using a 0.1 cm pathlength cell.

[4] = In vitro stability: aggregation under stressed conditions by change in transmittance at 540 nm; type: physicochemical
Description: These aggregates are large and scatter light, allowing the degree of aggregation to be evaluated by measuring the change in transmittance over time. […] Data shown in FIGS. 2A-2E are the average transmittance trace for n=3 samples per group.
The plate was immediately placed into an plate reader and incubated with continuous shaking 37° C. Absorbance readings were taken every 10 minutes at 540 nm for 100 h (BioTek SynergyH1 microplate reader).
Controls included: (i) NOVOLOG®, (ii) zinc-free NOVOLOG®, (iii) pramlintide (sodium acetate buffer at pH=4), (iv) pramlintide (PBS at pH=7), (v) NOVOLOG®+pramlintide (PBS at pH=7.4).

[5] = given for comparison; cited from earlier work
[6] = according to Webber et al., agitation; cited from earlier work

Molecule | diffusion rate D [2] | hydrodynamic radius (Rh) [2] [nm] | effect of CB[7]-PEG binding on protein (secondary) structure [3] | further results
CN(C)c1ccc2cc3ccc(N(C)C)cc3nc2c1 [AO, Acridine Orange] | – | – | – | CB[7]⋅AO equilibrium constant (Keq) [1]: 200000 M⁻¹
CC[C@H](C)[C@H](NC(=O)[C@@H]1CCCN1C(=O)CNC(=O)[C@H](Cc1ccccc1)NC(=O)[C@H](CC(N)=O)NC(=O)[C@H](CC(N)=O)NC(=O)[C@H](CO)NC(=O)[C@H](CO)NC(=O)[C@H](Cc1c[nH]cn1)NC(=O)[C@@H](NC(=O)[C@H](CC(C)C)NC(=O)[C@H](Cc1ccccc1)NC(=O)[C@H](CC(N)=O)NC(=O)[C@H](C)NC(=O)[C@H](CC(C)C)NC(=O)[C@H](CCCNC(=N)N)NC(=O)[C@H](CCC(N)=O)NC(=O)[C@@H](NC(=O)[C@H](C)NC(=O)[C@@H]1CSSC[C@H](NC(=O)[C@@H](N)CCCCN)C(=O)N[C@@H](CC(N)=O)C(=O)N[C@@H]([C@@H](C)O)C(=O)N[C@@H](C)C(=O)N[C@@H]([C@@H](C)O)C(=O)N1)[C@@H](C)O)C(C)C)C(=O)N[C@@H](CC(C)C)C(=O)N1CCC[C@H]1C(=O)N1CCC[C@H]1C(=O)N[C@H](C(=O)N[C@@H](CC(N)=O)C(=O)N[C@H](C(=O)NCC(=O)N[C@@H](CO)C(=O)N[C@@H](CC(N)=O)C(=O)N[C@H](C(=O)N[C@@H](Cc1ccc(O)cc1)C(N)=O)[C@@H](C)O)C(C)C)[C@@H](C)O [pramlintide] | ~2×10^−10 m^2 s^−1 | 1.2 | did not affect protein structure; also recorded: no difference in protein secondary structure was observed | ratio of diffusion rates, pramlintide alone to insulin in a standard formulation ([2]; standard formulation): ~2.3; time stable ([4]; pH=4 sodium acetate buffer): over 100 hours; time to aggregation / time stable ([4]; pH=7.4 in PBS, aggregation measured as ~5% change in transmittance at 540 nm): 15 ± 4 h
insulin aspart | ~1.2×10^−10 m^2 s^−1 | ~2.2 | did not affect protein structure; also recorded: did not alter the secondary structure | –
insulin hexamer: hexameric association state of insulin in standard zinc formulations | – | – | – | hydrodynamic radius [5]: approximately 2.8 nm
native insulin: recombinant human insulin of Webber et al. | – | – | – | aggregation time (tA), 10% reduction in transmittance [6]: 13.6 ± 0.2 h
